In patent US20050221475A1, “Cell culture procedures for inducing a neuronal phenotype in insect cells” (priority 2004, published 2005):

How the values were obtained:
[1] = tested on: continuous cell lines of the Beet Armyworm, Spodoptera exigua; conditions: cell proliferation assay; cited from earlier work
[2] = tested on: Drosophila Kc-H line; conditions: cited from earlier work
[3] = tested on: Aedes aegypti established cell line; conditions: 2 days exposure to 3×10^−7 M; cited from earlier work
[4] = tested on: Sf21 cells; experiment: Sf21 cell culture: morphology and count of cells displaying processes (transformants); format: cell-based, Spodoptera frugiperda
[5] = tested on: Sf21 cells; format: cell-based, Spodoptera frugiperda
[6] = tested on: acetylcholinesterase (ACHE); conditions: 10^−6 M; cited from earlier work

Cc1c(COC(=O)[C@@H]2[C@H](/C=C(\Cl)C(F)(F)F)C2(C)C)cccc1-c1ccccc1 (racemic) [bifenthrin]
activity in undifferentiated cells [1]: low activity

CC(C)(O)CC[C@@H](O)[C@](C)(O)[C@H]1CC[C@@]2(O)C3=CC(=O)[C@@H]4C[C@@H](O)[C@@H](O)C[C@]4(C)[C@H]3CC[C@]12C [20-hydroxyecdysone]
concentration at which cells extend long processes and acquire acetylcholinesterase activity [2]: greater than or equal to 10^−8 molar
stimulation of AChE activity [3]: 2 fold
increase in the number of cells showing one or more processes ([4]; 20 μg/ml, counted 2 days after treatment, vs control, n=8): ~30 fold
effect on cell morphology ([4]; TNM-FH medium supplemented with 10 μg/ml, 48 hours after passage (FIG. 2)): numerous cells assume the appearance of monopolar neurons, with prominent axon-like structures

NC1=N[C@H](O)[C@H]2[C@H]3O[C@]4(O)O[C@@H]([C@@H](O)[C@@]2(N1)[C@@H]4O)[C@]3(O)CO [TTX, tetrodotoxin]
effect on veratridine-induced increase in transformants [5]: blocked

CNC(=O)Oc1ccc2c(c1)[C@]1(C)CCN(C)[C@@H]1N2C.CNC(=O)Oc1ccc2c(c1)[C@]1(C)CCN(C)[C@@H]1N2C.O=S(=O)(O)O [serine sulfate]
effect on enzyme (AChE) [6]: blocked

COc1ccc(C(=O)O[C@H]2CC[C@@]3(C)[C@@H]4CC[C@H]5[C@]6(O)C[C@H](O)[C@@]7(O)[C@@H](CN8C[C@@H](C)CC[C@H]8[C@@]7(C)O)[C@]6(O)C[C@@]53O[C@]24O)cc1OC [veratridine]
increase in the number of transformants [5]: ~3 fold

nerve growth factor: nerve growth factor (NGF)
effect on cell morphology ([4]; 20 μg/ml NGF, 48 hours after passage (FIG. 5)): does not induce any similar morphological changes
